Results published in USRE40086E1, “Method for treating bacterial infection with novel 7-substituted-9-substituted amino 6-demethyl-6-deoxytetracyclines” (Wyeth Holdings Corporation, priority 1991, dated 2008).
Like-named read-outs stand apart in the source and are kept apart here.

Key:
[1] = tested on: S. aureus UBMS 90-1 (tetM); assay: MIC, agar dilution; type: cell-based; settings: S. aureus UBMS 90-1 TetM; Table IA; unit assumed
[2] = tested on: E. coli UBMS 90-5; assay: MIC, agar dilution (Table IA); type: cell-based; settings: unit assumed
[3] = tested on: E. coli UBMS 89-1 (tetM); assay: MIC, agar dilution; type: cell-based; settings: E. coli UBMS 89-1 TetM; Table IA; unit assumed
[4] = tested on: E. coli UBMS 90-4 (tetM); assay: MIC, agar dilution; type: cell-based; settings: E. coli UBMS 90-4 TetM; Table IA; unit assumed
[5] = tested on: S. aureus ATCC 29213 (Sensitive); assay: MIC, agar dilution; type: cell-based; settings: S. aureus ATCC 29213; Table IA; unit assumed
[6] = tested on: E. faecalis ATCC 29212; assay: MIC, agar dilution; type: cell-based; settings: E. faecalis ATCC 29212; Table IA; unit assumed
[7] = tested on: E. coli UBMS 88-1 (tetB); assay: MIC, agar dilution; type: cell-based; settings: E. coli UBMS 88-1 TetB; Table IA; unit assumed
[8] = tested on: E. coli J2175; assay: MIC, agar dilution (Table IA); type: cell-based; settings: unit assumed
[9] = tested on: E. faecalis 12201; assay: MIC, agar dilution; type: cell-based; settings: Enterococcus 12201; Table IA; unit assumed
[10] = tested on: E. coli MC4100 TetB; assay: MIC, agar dilution (Table IA); type: cell-based; settings: unit assumed
[11] = tested on: Ps. acruginosa ATCC 27853; assay: MIC, agar dilution (Table IA); type: cell-based; settings: unit assumed
[12] = tested on: S. aureus UBMS 88-7 (tetK); assay: MIC, agar dilution; type: cell-based; settings: S. aureus UBMS 88-7 TetK; Table IA; unit assumed
[13] = tested on: E. coli BAJ9003; assay: MIC, agar dilution (Table IA); type: cell-based; settings: unit assumed
[14] = tested on: S. aureus UBMS 90-3 (Sensitive); assay: MIC, agar dilution; type: cell-based; settings: S. aureus UBMS 90-3; Table IA; unit assumed
[15] = tested on: E. coli J3272 TetD; assay: MIC, agar dilution (Table IA); type: cell-based; settings: unit assumed
[16] = tested on: S. aureus UBMS 88-5 (tetM); assay: MIC, agar dilution; type: cell-based; settings: S. aureus UBMS 88-5 TetM; Table IA; unit assumed
[17] = tested on: E. coli PRP1 TetA; assay: MIC, agar dilution (Table IA); type: cell-based; settings: unit assumed
[18] = tested on: E. coli #311 (MP); assay: MIC, agar dilution (Table IA); type: cell-based; settings: unit assumed
[19] = tested on: X. maltophilia NEMC 87210; assay: MIC, agar dilution (Table IA); type: cell-based; settings: unit assumed
[20] = tested on: E. coli ATCC 25922; assay: MIC, agar dilution; type: cell-based; settings: E. coli ATCC 25922; Table IA; unit assumed
[21] = tested on: S. aureus SMITH (sens); assay: In vivo antibacterial evaluation, acute lethal infection in mice; settings: Oral
Description: In Vivo Antibacterial Evaluation (Table VII)

[22] = tested on: S. aureus NEMC 8769/89-4; assay: MIC, agar dilution (Table IA); type: cell-based
[23] = tested on: S. haemolyticus AVAH 88-3; assay: MIC, agar dilution; type: cell-based; settings: S. hemolyticus AVHAH 88-3; Table IA; unit assumed
[24] = tested on: E. coli UBMS 89-2 (Sensitive); assay: MIC, agar dilution; type: cell-based; settings: E. coli UBMS 89-2 Tet Sens.; Table IA; unit assumed
[25] = tested on: S. aureus IVES 1983 (meth. resistant); assay: MIC, agar dilution; type: cell-based; settings: S. aureus IVES 1983; Table IA; unit assumed
[26] = tested on: E. coli J3272 TetC; assay: MIC, agar dilution (Table IA); type: cell-based; settings: unit assumed
[27] = tested on: S. aureus UBMS 90-2 (tetM); assay: MIC, agar dilution; type: cell-based; settings: S. aureus UBMS 90-2 TetM; Table IA; unit assumed
[28] = tested on: S. mariescens FDOR 8733; assay: MIC, agar dilution (Table IA); type: cell-based; settings: unit assumed
[29] = tested on: S. aureus IVES 2943 (meth. resistant); assay: MIC, agar dilution; type: cell-based; settings: S. aureus IVES 2943; Table IA; unit assumed
[30] = tested on: E. coli MC4100 Tet sens.; assay: MIC, agar dilution (Table IA); type: cell-based; settings: unit assumed
[31] = tested on: S. aureus Smith (Sensitive); assay: MIC, agar dilution; type: cell-based; settings: S. aureus SMITH (MP); Table IA; unit assumed
[32] = tested on: S. aureus ROSE (MP); assay: MIC, agar dilution (Table IA); type: cell-based; settings: unit assumed
[33] = tested on: S. aureus UBMS 88-4 (Sensitive); assay: MIC, agar dilution; type: cell-based; settings: S. aureus UBMS 88-4; Table IA; unit assumed
[34] = tested on: E. coli J3272 Tet sens.; assay: MIC, agar dilution (Table IA); type: cell-based; settings: unit assumed
[35] = tested on: S. aureus SMITH (sens); assay: In vivo antibacterial evaluation, acute lethal infection in mice; settings: Intraveneous

| SMILES | Antibacterial activity (MIC) [1] [µg/mL] | Antibacterial activity (MIC) [2] [µg/mL] | Antibacterial activity (MIC) [3] [µg/mL] | Antibacterial activity (MIC) [4] [µg/mL] | Antibacterial activity (MIC) [5] [µg/mL] | Antibacterial activity (MIC) [6] [µg/mL] | Antibacterial activity (MIC) [7] [µg/mL] | Antibacterial activity (MIC) [8] [µg/mL] | Antibacterial activity (MIC) [9] [µg/mL] | Antibacterial activity (MIC) [10] [µg/mL] | Antibacterial activity (MIC) [11] [µg/mL] | Antibacterial activity (MIC) [12] [µg/mL] | Antibacterial activity (MIC) [14] [µg/mL] | Antibacterial activity (MIC) [15] [µg/mL] | Antibacterial activity (MIC) [16] [µg/mL] | Antibacterial activity (MIC) [17] [µg/mL] | Antibacterial activity (MIC) [18] [µg/mL] | Antibacterial activity (MIC) [19] [µg/mL] | Antibacterial activity (MIC) [20] [µg/mL] | ED50 [21] [mg/kg] | further results |
| --- | --- | --- | --- | --- | --- | --- | --- | --- | --- | --- | --- | --- | --- | --- | --- | --- | --- | --- | --- | --- | --- |
| CCCCCNCC(=O)Nc1cc(N(C)C)c2c(c1O)C(=O)C1=C(O)C3(O)C(=O)C(C(N)=O)=C(O)C(N(C)C)C3CC1C2.Cl.Cl (stereo not drawn) [DDD, [4S-(4alpha,12aalpha)]-4,7-Bis(dimethylamino)-1,4 4a,5,5a,6,11,12a-octahydro-3,10-12,12a-tetrahydroxy-1,11-dioxo-9-[[(pentylamino)acetyl]amino)-2-naphthacenecarboxamide dihydrochloride] | 1 | 0.5 | 0.25 | 0.5 | 1 | 0.25 | 0.5 | 0.5 | 0.25 | 0.5 | 32 | 2 | 0.5 | 0.25 | 0.5 | 1 | 0.5 | 0.5 | 0.5 | 8 to 16 | Antibacterial activity (MIC) [13]: 0.12 µg/mL; Antibacterial activity (MIC) ([22]; unit assumed): 0.25 µg/mL; Antibacterial activity (MIC) [23]: 0.5 µg/mL; Antibacterial activity (MIC) [24]: 0.5 µg/mL; Antibacterial activity (MIC) [25]: 4 µg/mL; Antibacterial activity (MIC) [26]: 0.5 µg/mL; Antibacterial activity (MIC) [27]: 0.5 µg/mL; Antibacterial activity (MIC) [28]: 8 µg/mL; Antibacterial activity (MIC) [29]: 4 µg/mL; Antibacterial activity (MIC) [30]: 0.12 µg/mL; Antibacterial activity (MIC) [31]: 0.25 µg/mL; Antibacterial activity (MIC) [32]: 4 µg/mL; Antibacterial activity (MIC) [33]: 0.5 µg/mL |
| CN(C)c1cc(NC(=O)CNCc2ccccc2)c(O)c2c1CC1CC3C(N(C)C)C(O)=C(C(N)=O)C(=O)C3(O)C(O)=C1C2=O.Cl.Cl (stereo not drawn) [EEE, [4S-(4alpha,12aalpha)]-4,7-Bis(dimethylamino)-1,4,4a,5,5a,6,11,12a-octahydro-3,10,12,12a-tetrahydroxy-1,11-dioxo-9-[[[(phenylmethyl)amino]acetyl]amino]-2-naphthacenecarboxamide dihydrochloride] | 0.5 | 0.5 | 0.5 | 0.5 | 0.5 | 0.25 | 2 | 4 | 0.25 | 4 | 32 | 2 | 0.25 | 0.5 | 0.5 | 4 | 0.5 | 1 | 0.5 | 8 to 16 | Antibacterial activity (MIC) [13]: 0.25 µg/mL; Antibacterial activity (MIC) ([22]; unit assumed): 0.12 µg/mL; Antibacterial activity (MIC) [23]: 2 µg/mL; Antibacterial activity (MIC) [24]: 4 µg/mL; Antibacterial activity (MIC) [25]: 2 µg/mL; Antibacterial activity (MIC) [26]: 2 µg/mL; Antibacterial activity (MIC) [27]: 0.25 µg/mL; Antibacterial activity (MIC) [28]: 4 µg/mL; Antibacterial activity (MIC) [29]: 2 µg/mL; Antibacterial activity (MIC) [30]: 0.5 µg/mL; Antibacterial activity (MIC) [31]: 0.25 µg/mL; Antibacterial activity (MIC) [32]: 8 µg/mL; Antibacterial activity (MIC) [33]: 0.25 µg/mL |
| CN(C)CC(=O)Nc1cc(N(C)C)c2c(c1O)C(=O)C1=C(O)C3(O)C(=O)C(C(N)=O)=C(O)C(N(C)C)C3CC1C2 (stereo not drawn) [LL, [4S-(4alpha,12aalpha)]-4,7-Bis(dimethylamino)-9-[[(dimethylamino)acetyl]amino]-1,4,4a,5,5a,6,11,12a-octahydro-3,10,12,12a-tetrahydroxy-1,11-dioxo-2-naphthacenecarboxamide] | 0.12 | 0.12 | 0.12 | 0.25 | 0.06 | 0.06 | 0.25 | 0.12 | 0.06 | 0.25 | 4 | 0.5 | 0.06 | 0.06 | 0.12 | 1 | 0.12 | 0.25 | 0.12 | 4 to 8 | Antibacterial activity (MIC) [22]: ≦0.015; Antibacterial activity (MIC) [23]: 0.12 µg/mL; Antibacterial activity (MIC) [24]: 0.12 µg/mL; Antibacterial activity (MIC) [34]: 0.12 µg/mL; Antibacterial activity (MIC) [25]: 1 µg/mL; Antibacterial activity (MIC) [26]: 0.5 µg/mL; Antibacterial activity (MIC) [27]: 0.12 µg/mL; Antibacterial activity (MIC) [28]: 2 µg/mL; Antibacterial activity (MIC) [29]: 1 µg/mL; Antibacterial activity (MIC) [31]: 0.06 µg/mL; Antibacterial activity (MIC) [32]: 1 µg/mL; Antibacterial activity (MIC) [33]: 0.06 µg/mL; ED50 [35]: 0.25 to 0.5 mg/kg |
